Several values for one entry are separate records, joined by “and”; a condition that tells them apart may be missing. Identical values can stand only once.
How the values were obtained:
[1] = parameters: method as in PMID 17382398; settings: data from the literature ref 50; cited from earlier work
[2] = parameters: method as in PMID 17382398; settings: data from the literature ref 50; cited from earlier work; remark: listed apart in the source
[3] = Metal chelation by UV–vis spectrometry, Job's method and affinity estimate (Cu); assay type: physicochemical; settings: for LogK Cu (affinity of ligand for Cu^II, ML2): 2L+M⇔ML2; for Mole fraction of compound at the intersection of the Job plot (Cu^II): Job's method, CuSO4, sum of concentrations 20 μm; for Maximum absorption of compound–Cu^II complex: bathochromic shift from 246 nm of the free compound
Excerpt: (§1) Given the 8-hydroxy(amino)quinoline moiety with the properties to bind metal ions, the abilities of all the compounds in binding metal ions (Cu^II, Fe^III, Zn^II) were studied by UV–vis spectrometry. At first three compounds were chose to test the binding abilities. Upon the addition of CuCl2 or ZnSO4 the maximum absorption suffered a bathochromic shift, pointing out the formation of complex compound–Cu^II. […] […].
(§2) To determine the stoichiometry of the complex compound–Cu^II, the technique of continuous variations (also called Job’s method) was used by preparing solutions of compounds 15a, 17b and CuSO4 so that the sum of concentrations of both species was constant at […] in all samples, but the proportions of both components varied between 0 and 100%. The UV spectra were recorded and the absorbance change at the maximum absorption wavelength of the compound-Cu^II complex, meaning the 15a-Cu^II complex at 264 nm and the 17b-Cu^II at 265 nm, respectively. The absorbance change was plotted versus the mole fraction of the compound, giving two straight lines whose equations were calculated. […] […].
(§3) Since all the ligands studied L from ML2 species and in accordance with the Beer–Lambert law, complexation reactions can be summarized as 2L+M⇔ML2 with K = 1−α/4C^2α^3 , and α can be calculated from the data of the absorption.
(§4) Metal-chelating properties were evaluated by UV–vis spectrometry. To screen the ability of chelating metal ions, the same concentrations of compound and metal ion were mixed in CH3OH/H2O (v/v = 9/1), and the UV–vis spectrum was tested; compared to the compound, the maximum absorption that suffered a bathochromic shift would point out the formation of a complex compound–metal ion. The stoichiometry of the complex compound–metal ion was determined by Job’s method. The affinity of compounds 15–17 as ligands (excepted 15f, 16d, 16g, 16k) for Cu^II or Zn^II were estimated in the CH3OH/H2O solution (v/v = 9/1). Since all the ligands studied L from ML2 species and in accordance with the Beer–Lambert law, complexation reactions can be summarized as 2L+M⇔ML2 with K = 1−α/4C^2α^3 , and α = A/Amax; A was the data of absorption tested when the compound–metal ion = 2/1 under the maximum absorption wavelength of the complex, Amax was the absorption when the compound completely formed a complex with the metal ion; the data can be obtained as an approximation when the metal ion is in excess, and the absorption changes little as the concentration of metal ion still increases.

[4] = Metal chelation by UV–vis spectrometry, stoichiometry and affinity estimate (Zn); assay type: physicochemical; settings: for LogK Zn (affinity of ligand for Zn^II, ML2): 2L+M⇔ML2; for Maximum absorption of compound–Zn^II complex: bathochromic shift from 246 nm of the free compound
Excerpt: as §1, §2, §3, §4

Aβ1–42 = biological target: T1, Aβ1–42 (Homo sapiens, UniProt P05067); experiment: Inhibition of self-induced Aβ1–42 aggregation (ThT fluorescence); assay type: biochemical; settings: 20 μM compound, thioflavin-T fluorescence, mean ± SD of at least three independent experiments; read-out: Aβ Aggregation Inhibition (%), self-induced Aβ1–42
T1 construct: aggregation of Aβ1–42 synthetic peptide into fibrils
Experimental: Self-induced Aβ1–42 aggregation of all the compounds we obtained was also evaluated. […] ThT is a histochemical dye that is known to bind to the peptide β-sheet conformation, which is the predominant secondary structure of amyloid-beta fibrils. […] The inhibition studies were carried out upon incubating Aβ1–42 with and without the compounds.
Aβ1–42 was dissolved in 100% 1,1,1,3,3,3-[…] (HFIP) to a concentration of 1 mg/mL, sonicated in a water bath overnight, aliquoted into microcentrifuge tubes, dried under vacuum, and stored at −20 °C. Immediately prior to use, the HFIP-treated Aβ1–42 was dissolved in dimethylsulfoxide (DMSO) as the stored solution. […] Amounts of 5 μL of compound (200 μM) and 5 μL of 200 μM Aβ1–42 were added into 40 μL of phosphate-buffered saline (PBS at pH 7.4). After incubation at room temperature on a thermostatic shaker for 72 h, 100 μL of 5 μM ThT solution (in PBS at pH 7.4) was added to the reaction solution. […] The Aβ1–42 aggregation inhibition percentage was calculated using the following formula: inhibition percentage = (F1 − F2)/(F1 − F0) × 100%.

[5] = Metal chelation by UV–vis spectrometry (Fe); assay type: physicochemical
Experimental: as §1, §4

[6] = biological target: T2, butyrylcholinesterase (BuChE, from horse serum) (Equus caballus, UniProt P81908); experiment: biochemical; settings: equine serum BuChE, Ellman's method, pH 7.4; means ± SEM of at least three experiments; read-out: IC50 BuChE Inhibition
T2 construct: purchased Sigma-Aldrich
Experimental: (§5) Cholinesterase (ChE) inhibitory activity was evaluated using a modified Ellman’s spectrophotometric method. Acetylcholinesterase (AChE, from electric eel), butyrylcholinesterase (BuChE, from equine serum), 5,5′-dithiobis-(2-nitrobenzoic acid) (Ellman’s reagent, DTNB), S-butyrylthiocholine iodide (BTCI), acetylthiocholine iodide (ATCI), and tarcine hydrochloride were purchased from Sigma-Aldrich. Tarcine hydrochloride was used as a reference standard. All the assays were carried out in 0.1 M KH2PO4/K2HPO4 buffer (pH = 7.4). Stock solutions of tested compounds (10 mM) were prepared in DMSO (below 0.5%, v/v) and diluted in phosphate buffer. The assay was performed in 96-well plate by adding 25 μL of 1 mM acetylthiocholine iodide or butyrylthiocholine iodide used as substrate in the assay, 125 μL of 1 mM 5,5′-dithiobis-(2-nitrobenzoic acid) (DTNB), 25 μL of 0.1 M phosphate buffer (pH = 7.4), 25 μL of testing substance in various concentrations, and 50 μL of 0.2 Units/mL AChE from an electric eel or BuChE from equine serum, respectively. At least five concentrations of the test compounds were assayed. […] The enzyme activity and the percentage inhibition were determined.

[7] = biological target: T3, acetylcholinesterase (AChE, from an electric eel) (Electrophorus electricus, UniProt O42275); experiment: biochemical; settings: for IC50: electric eel AChE, Ellman's method, pH 7.4, means ± SEM of at least three experiments, read-out: IC50 AChE Inhibition; for Selectivity Index = IC50 (AChE)/IC50 (BuChE): ratio of eeAChE and equine BuChE IC50
T3 construct: purchased Sigma-Aldrich
Experimental: as §5

[8] = biological target: T4, electric eel AChE (eeAChE) (Electrophorus electricus, UniProt O42275); experiment: Kinetic study of AChE inhibition (Lineweaver–Burk plots); assay type: biochemical; settings: 16e at 10, 50 and 100 nM, Lineweaver–Burk plot
T4 construct: purchased Sigma-Aldrich
T4 sequence (O42275 24-633): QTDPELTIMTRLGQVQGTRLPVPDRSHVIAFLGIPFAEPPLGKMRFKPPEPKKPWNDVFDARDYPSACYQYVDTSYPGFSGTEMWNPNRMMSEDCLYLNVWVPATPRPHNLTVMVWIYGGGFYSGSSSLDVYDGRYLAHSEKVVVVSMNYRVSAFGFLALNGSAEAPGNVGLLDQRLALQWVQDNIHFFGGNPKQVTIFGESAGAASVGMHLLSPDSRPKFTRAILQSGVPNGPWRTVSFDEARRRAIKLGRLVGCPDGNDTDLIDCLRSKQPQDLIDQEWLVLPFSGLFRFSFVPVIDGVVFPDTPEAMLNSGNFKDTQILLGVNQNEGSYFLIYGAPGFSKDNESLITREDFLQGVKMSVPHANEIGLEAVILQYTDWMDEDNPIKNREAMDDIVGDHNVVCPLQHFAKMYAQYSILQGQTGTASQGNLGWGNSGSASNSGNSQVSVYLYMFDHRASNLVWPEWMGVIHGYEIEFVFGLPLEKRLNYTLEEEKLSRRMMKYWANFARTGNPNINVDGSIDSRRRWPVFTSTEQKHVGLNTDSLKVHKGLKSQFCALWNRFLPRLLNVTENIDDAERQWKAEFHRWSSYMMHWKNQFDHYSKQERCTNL
Experimental: To elucidate the mechanism of AChE’s inhibition by the synthesized hybrids, a detailed enzyme kinetic study was conducted using electric eel AChE (eeAChE).
The slope (Km/Vmax) reflects the apparent enzyme–substrate affinity, whereas the y-intercept (1/Vmax) corresponds to the maximum reaction velocity.
The assay medium contained 25 μL of PBS (pH 7.4), 50 μL of enzyme, 25 μL of compound solution, and 125 μL of 1.0 mM DTNB; the reaction was started by addition of 25 μL of different concentrations of ATC.
The slope (Km/Vmax) reflects the enzyme’s affinity for the substrate in the presence of the inhibitor, while the y-intercept (1/Vmax) indicates the maximum velocity of the reaction.

T2 sequence (P81908 whole entry): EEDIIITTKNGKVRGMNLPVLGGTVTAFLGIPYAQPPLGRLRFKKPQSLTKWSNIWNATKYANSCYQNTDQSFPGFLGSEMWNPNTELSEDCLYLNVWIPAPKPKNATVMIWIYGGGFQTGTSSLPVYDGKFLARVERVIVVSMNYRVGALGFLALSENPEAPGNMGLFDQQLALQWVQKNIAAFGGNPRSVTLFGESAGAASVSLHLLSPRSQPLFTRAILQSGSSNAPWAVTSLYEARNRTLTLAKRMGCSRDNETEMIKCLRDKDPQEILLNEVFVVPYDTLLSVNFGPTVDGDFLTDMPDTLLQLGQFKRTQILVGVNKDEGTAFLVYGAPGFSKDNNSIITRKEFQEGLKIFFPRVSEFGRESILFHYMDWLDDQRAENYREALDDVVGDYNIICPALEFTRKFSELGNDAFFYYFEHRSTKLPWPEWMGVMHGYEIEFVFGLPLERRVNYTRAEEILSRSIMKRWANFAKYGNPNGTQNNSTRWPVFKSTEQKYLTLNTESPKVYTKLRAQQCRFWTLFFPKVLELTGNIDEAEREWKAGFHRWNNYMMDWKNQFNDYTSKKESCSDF
T3 sequence (O42275 24-633): as the sequence (O42275 24-633) above
T1 sequence (P05067 672-713): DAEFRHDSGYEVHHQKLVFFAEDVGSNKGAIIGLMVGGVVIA

In the case of `Oc1c(I)cc(Cl)c2cccnc12` [clioquinol, reference compound], the “LogK Cu, value in parentheses” value [1] is listed as 10.08, the “LogK Zn, value in parentheses” value [2] is listed as 8.84 and the “LogK Cu (affinity of ligand for Cu^II, ML2)” value ([3]; CH3OH/H2O (v/v = 9/1), UV–vis) is listed as 9.86. The “LogK Zn (affinity of ligand for Zn^II, ML2)” value ([4]; CH3OH/H2O (v/v = 9/1)) was 8.38.
With `Nc1cccc2ccc(CN3CCN(CCCNc4c5c(nc6ccccc46)CCCC5)CC3)nc12` [Compound 16g, N-(3-(4-((8-aminoquinolin-2-yl)methyl)piperazin-1-yl)propyl)-1,2,3,4-tetrahydroacridin-9-amine] the inhibition at 20 µM (Aβ1–42) was 94.6 ± 4.2%, the “Complex formation with Fe^III (UV–vis shift)” value [5] was “no reliable shift” and the “Complex formation with Cu^II (UV–vis shift / binding)” value ([3]; UV–vis, CH3OH/H2O (v/v = 9/1)) was “no reliable shift”. The “Complex formation with Zn^II (UV–vis shift / binding)” value ([4]; CH3OH/H2O (v/v = 9/1)) was “no reliable shift”, the IC50 [6] was 18 ± 3 nM and the IC50 [7] was 52 ± 1 nM. The “Selectivity Index = IC50 (AChE)/IC50 (BuChE)” value (“Selectivity Index = IC50” for short) [7] was 2.89.
With `Oc1cccc2ccc(CN3CCN(CCCNc4c5c(nc6ccccc46)CCCC5)CC3)nc12` [Compound 16e, 2-((4-(3-((1,2,3,4-Tetrahydroacridin-9-yl)amino)propyl)piperazin-1-yl)methyl)quinolin-8-ol] the “Type of AChE inhibition” value [8] was “mixed-type inhibition”, the inhibition at 20 µM (Aβ1–42) was 80.5 ± 4.4% and the “LogK Cu (affinity of ligand for Cu^II, ML2)” value ([3]; CH3OH/H2O (v/v = 9/1), UV–vis) was 9.46. For the same compound, the “LogK Zn (affinity of ligand for Zn^II, ML2)” value ([4]; CH3OH/H2O (v/v = 9/1)) was 9.63, the IC50 [6] was 43 ± 5 nM and the IC50 [7] was 100 ± 3.2 nM. The “Selectivity Index = IC50” value [7] was 2.33.
In the case of `O=C(CN1CCN(Cc2ccc3cccc(O)c3n2)CC1)Nc1c2c(nc3ccccc13)CCCC2` [Compound 15a, 2-(4-((8-Hydroxyquinolin-2-yl)methyl)piperazin-1-yl)-N-(1,2,3,4-tetrahydroacridin-9-yl)acetamide], the inhibition at 20 µM (Aβ1–42) is reported as 46.8 ± 4.1%, the “Complex formation with Fe^III (UV–vis shift)” value [5] is reported as “no reliable shift” and the “LogK Cu (affinity of ligand for Cu^II, ML2)” value ([3]; CH3OH/H2O (v/v = 9/1), UV–vis) is reported as 10.14. The “Mole fraction of compound at the intersection of the Job plot (Cu^II)” value [3] was “around 0.7”, the “Maximum absorption of compound–Cu^II complex” value ([3]; UV–vis) was 264 nm and the “LogK Zn (affinity of ligand for Zn^II, ML2)” value ([4]; CH3OH/H2O (v/v = 9/1)) was 9.91. The “Maximum absorption of compound–Zn^II complex” value [4] was 266 nm and 262 nm, the IC50 [6] was 7740 ± 890 nM and the IC50 [7] was 2020 ± 120 nM. For the same compound, the “Selectivity Index = IC50” value [7] was 0.26.
In the case of `Cc1ccc2c(CN3CCN(CC(=O)Nc4c5c(nc6ccccc46)CCCC5)CC3)ccc(O)c2n1` [Compound 17b, 2-(4-((8-Hydroxy-2-methylquinolin-5-yl)methyl)piperazin-1-yl)-N-(1,2,3,4-tetrahydroacridin-9-yl)acetamide], the inhibition at 20 µM (Aβ1–42) is reported as 23.3 ± 3.2%, the “Complex formation with Fe^III (UV–vis shift)” value [5] is reported as “no reliable shift” and the “LogK Cu (affinity of ligand for Cu^II, ML2)” value ([3]; CH3OH/H2O (v/v = 9/1), UV–vis) is reported as 9.42. The “Mole fraction of compound at the intersection of the Job plot (Cu^II)” value [3] was “around 0.7”, the “Maximum absorption of compound–Cu^II complex” value ([3]; UV–vis) was 265 nm and the “LogK Zn (affinity of ligand for Zn^II, ML2)” value ([4]; CH3OH/H2O (v/v = 9/1)) was 9.71. The “Maximum absorption of compound–Zn^II complex” value [4] was 262 nm, the IC50 [6] was 4390 ± 270 nM and the IC50 [7] was 2530 ± 200 nM. For the same compound, the “Selectivity Index = IC50” value [7] was 0.58.
For `Oc1ccc(F)c2ccc(CN3CCN(CCCNc4c5c(nc6ccccc46)CCCC5)CC3)nc12` [Compound 16f, 5-Fluoro-2-((4-(3-((1,2,3,4-tetrahydroacridin-9-yl)amino)propyl)piperazin-1-yl)methyl)quinolin-8-ol], the inhibition at 20 µM (Aβ1–42) was 54.4 ± 2.9%, the “LogK Cu (affinity of ligand for Cu^II, ML2)” value ([3]; CH3OH/H2O (v/v = 9/1), UV–vis) was 9.62 and the “LogK Zn (affinity of ligand for Zn^II, ML2)” value ([4]; CH3OH/H2O (v/v = 9/1)) was 9.45. The IC50 [6] was 28 ± 2 nM, the IC50 [7] was 87 ± 2 nM and the “Selectivity Index = IC50” value [7] was 3.11.
In the case of `Oc1cccc2ccc(CN3CCN(CCCCCNc4c5c(nc6ccccc46)CCCC5)CC3)nc12` [Compound 16h, 2-((4-(5-((1,2,3,4-Tetrahydroacridin-9-yl)amino)pentyl)piperazin-1-yl)methyl)quinolin-8-ol], the inhibition at 20 µM (Aβ1–42) is reported as 93.2 ± 3.9%, the “LogK Cu (affinity of ligand for Cu^II, ML2)” value ([3]; CH3OH/H2O (v/v = 9/1), UV–vis) is reported as 9.87 and the “LogK Zn (affinity of ligand for Zn^II, ML2)” value ([4]; CH3OH/H2O (v/v = 9/1)) is reported as 9.63. For the same compound, the IC50 [6] was 100 ± 10 nM, the IC50 [7] was 210 ± 3 nM and the “Selectivity Index = IC50” value [7] was 2.10.

Reference: article PMC12430544 (Molecules, 2025)
